Source: publication PMC2943414 (Journal of the American Chemical Society, 2010)

Biological target: flavodoxin (Nitratidesulfovibrio vulgaris, UniProt P00323, W140F)
Experiment: FMN retained on purification
Format: binding
Settings: oxidized state; as purified, before FMN removal

Chain of flavodoxin (P00323 whole entry W140F): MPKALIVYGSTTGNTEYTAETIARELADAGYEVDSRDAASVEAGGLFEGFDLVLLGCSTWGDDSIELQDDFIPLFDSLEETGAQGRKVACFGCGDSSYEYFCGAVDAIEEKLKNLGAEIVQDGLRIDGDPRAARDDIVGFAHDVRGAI

Cc1cc2nc3c(=O)[nH]c(=O)nc-3n(C[C@H](O)[C@H](O)[C@H](O)COP(=O)(O)O)c2cc1C [FMN]
FMN retained on purification: the two flavodoxin mutants (W60FY98F and W140F) contained the oxidized FMN
